From patent US9409866B2, “Pyridine-2-amides useful as CB2 agonists” (Hoffmann-La Roche Inc., priority 2012, dated 2016) come the findings set out here.

One test concerns the target human CB2 receptors (Homo sapiens (Human), UniProt P34972). Description: functional cAMP assay, CHO cells expressing human CB2. Format: cell-based. Summed up:
(§1)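 Compound exposure lasted 30 min at 30 °C in IBMX (1 mM)-containing Krebs Ringer bicarbonate buffer, applied to human CB1- or CB2-expressing CHO cells. Lysates were read by time-resolved FRET cAMP detection, converted via cAMP standard curve (10 μM–0.13 nM), and EC50 values calculated.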
On the technique in general: cAMP levels reflect the balance of adenylyl cyclase and phosphodiesterase activity.

The target of the next test is human CB1 receptors (Homo sapiens (Human), UniProt P21554). Put plainly: functional cAMP assay, CHO cells expressing human CB1. In kind it is cell-based. The method in brief: as §1
[1] abbreviates: functional cAMP assay, CHO cells expressing human CB1; read-out: Human CB1 EC50.
[2] abbreviates: Human CB1 EC50 (uM), functional cAMP assay, CHO cells expressing human CB1.
The mark [3] stands for this setting: read-out: Human CB1 EC50; functional cAMP assay, CHO cells expressing human CB1.

Read-outs that look alike come from different tables or passages of the source.

human CB1 receptors, sequence (P21554 whole entry): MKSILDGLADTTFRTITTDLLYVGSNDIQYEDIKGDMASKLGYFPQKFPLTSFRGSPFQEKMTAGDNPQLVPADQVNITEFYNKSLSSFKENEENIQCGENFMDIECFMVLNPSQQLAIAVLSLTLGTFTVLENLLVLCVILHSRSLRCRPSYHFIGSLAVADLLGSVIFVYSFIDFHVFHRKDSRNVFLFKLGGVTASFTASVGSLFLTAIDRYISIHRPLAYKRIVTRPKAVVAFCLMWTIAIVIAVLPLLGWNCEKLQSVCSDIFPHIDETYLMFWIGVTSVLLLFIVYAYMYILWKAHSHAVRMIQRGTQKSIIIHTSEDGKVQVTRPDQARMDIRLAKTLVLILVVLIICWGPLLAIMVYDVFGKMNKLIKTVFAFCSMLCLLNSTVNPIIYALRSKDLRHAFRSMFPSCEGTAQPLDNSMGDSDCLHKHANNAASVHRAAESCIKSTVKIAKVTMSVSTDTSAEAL
human CB2 receptors, sequence (P34972 whole entry): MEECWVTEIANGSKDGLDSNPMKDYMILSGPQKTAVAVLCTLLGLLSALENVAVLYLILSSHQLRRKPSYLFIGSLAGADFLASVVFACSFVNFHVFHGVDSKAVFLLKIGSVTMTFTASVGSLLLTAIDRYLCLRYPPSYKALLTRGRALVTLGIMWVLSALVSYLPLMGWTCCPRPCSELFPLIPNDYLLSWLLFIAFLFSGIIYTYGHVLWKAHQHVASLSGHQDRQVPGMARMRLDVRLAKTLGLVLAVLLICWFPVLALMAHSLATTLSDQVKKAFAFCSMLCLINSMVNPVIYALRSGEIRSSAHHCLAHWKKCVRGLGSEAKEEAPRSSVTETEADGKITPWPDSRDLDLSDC

What is called EC50 is the midpoint of the concentration-response curve. As for `CNC(=O)CC(C)(NC(=O)c1cc(OCC(F)(F)F)c(C2CC2)cn1)C1CC1` (centres unmarked) [Example 229, 5-cyclopropyl-N-[2-cyclopropyl-4-(methylamino)-4-oxobutan-2-yl]-4-(2,2,2-trifluoroethoxy)pyridine-2-carboxamide], the EC50 at human CB2 receptors (read-out: Human CB2 EC50) was 0.0114 µM; on human CB1 receptors (setting [1]), > 10 µM.

`CNC(=O)[C@@H](C)C(C)(C)NC(=O)c1cc(OCC2CC2)c(Cl)cn1` [Example 34, (−)-5-Chloro-4-cyclopropylmethoxy-pyridine-2-carboxylic acid (1,1-dimethyl-2-methylcarbamoyl-propyl)-amide]: the EC50 at human CB2 receptors (read-out: Human CB2 EC50) was 0.268 µM; at human CB1 receptors (setting [1]) it was > 10 µM.

As to `C[C@H](Oc1cc(C(=O)NC2(CC(N)=O)CS(=O)(=O)C2)ncc1C1(F)COC1)C(F)(F)F` [Example 265, N-[3-(2-amino-2-oxoethyl)-1,1-dioxothietan-3-yl]-5-(3-fluorooxetan-3-yl)-4-[(2S)-1,1,1-trifluoropropan-2-yl]oxypyridine-2-carboxamide], the results for the EC50 at human CB2 receptors (read-out: Human CB2 EC50) and at human CB1 receptors (setting [1]) were 0.102 µM and > 10 µM, respectively.

For `Cc1nc([C@](C)(NC(=O)c2cc(OCC(F)(F)F)c(Cl)cn2)C2CC2)no1` (single isomer, unassigned; enantiomer a) [Example 74, 5-Chloro-4-(2,2,2-trifluoro-ethoxy)-pyridine-2-carboxylic acid [1-cyclopropyl-1-(5-methyl-[1,2,4]oxadiazol-3-yl)-ethyl]-amide (enantiomer A)], the EC50 on human CB2 receptors (Human CB2 EC50 (uM)) was 0.0133 µM; at human CB1 receptors (setting [2]), > 10 µM.

`NC(=O)CC1(NC(=O)c2cc(OCC3CC3)c(N3CC(F)(F)C3)cn2)CS(=O)(=O)C1` [Example 267, N-[3-(2-amino-2-oxoethyl)-1,1-dioxothietan-3-yl]-4-(cyclopropylmethoxy)-5-(3,3-difluoroazetidin-1-yl)pyridine-2-carboxamide]: the EC50 is 0.0105 µM at human CB2 receptors (read-out: Human CB2 EC50) and > 10 µM at human CB1 receptors (setting [1]).

With `Cn1nnnc1C(NC(=O)c1cc(OCC(F)(F)F)c(C2CC2)cn1)C(C)(C)C` (single isomer, unassigned) [Example 206, 5-cyclopropyl-N-[2,2-dimethyl-1-(1-methyltetrazol-5-yl)propyl]-4-(2,2,2-trifluoroethoxy)pyridine-2-carboxamide], the EC50 at human CB2 receptors (Human CB2 EC50 (uM)) was 0.0393 µM; at human CB1 receptors (setting [3]), > 10 µM.

With `CC(C)C(CCO)NC(=O)c1cc(OCC2CC2)c(Cl)cn1` (centres unmarked) [Example 18, 5-Chloro-4-cyclopropylmethoxy-pyridine-2-carboxylic acid [1-(2-hydroxy-ethyl)-2-methyl-propyl]-amide], the concentration giving a half-maximal response (EC50) is 0.149 µM on human CB2 receptors (read-out: Human CB2 EC50) and > 10 µM on human CB1 receptors (setting [1]).

Regarding `NC(=O)CC1(NC(=O)c2cc(OCC(F)F)c(C3CC3)cn2)CS(=O)(=O)C1` [Example 274, N-[3-(2-amino-2-oxoethyl)-1,1-dioxothietan-3-yl]-5-cyclopropyl-4-(2,2-difluoroethoxy)pyridine-2-carboxamide], the figures for the EC50 at human CB2 receptors (read-out: Human CB2 EC50) and on human CB1 receptors (setting [1]) were 0.0101 µM and > 10 µM, respectively.

For the compound `Cc1nc(C(C)(CS(C)(=O)=O)NC(=O)c2cc(OC(C)CF)c(C3CC3)cn2)no1` (single isomer, unassigned) [Example 296, 5-cyclopropyl-4-(1-fluoropropan-2-yloxy)-N-(2-(5-methyl-1,2,4-oxadiazol-3-yl)-1-(methylsulfonyl)propan-2-yl)picolinamide], the EC50 on human CB2 receptors (Human CB2 EC50 (uM)) is 0.0422 µM; on human CB1 receptors (setting [3]), > 10 µM.

With `Cc1nc(C(C)(CS(C)(=O)=O)NC(=O)c2cc(O[C@@H](C)C(F)(F)F)c(C3(O)CCC3)cn2)no1` (stereo partly drawn) [Example 126, 5-(1-hydroxycyclobutyl)-N-[2-(5-methyl-1,2,4-oxadiazol-3-yl)-1-methylsulfonylpropan-2-yl]-4-[(2S)-1,1,1-trifluoropropan-2-yl]oxypyridine-2-carboxamide], the EC50 at human CB2 receptors (read-out: Human CB2 EC50) is 0.219 µM; at human CB1 receptors (setting [1]), > 10 µM.

Consider `CNC(=O)CC1(NC(=O)c2cc(OCC(F)(F)F)c(C3(F)CCC3)cn2)CS(=O)(=O)C1` [Example 285, 5-(1-fluorocyclobutyl)-N-[3-[2-(methylamino)-2-oxoethyl]-1,1-dioxothietan-3-yl]-4-(2,2,2-trifluoroethoxy)pyridine-2-carboxamide], for which the values for the EC50 at human CB2 receptors (read-out: Human CB2 EC50) and on human CB1 receptors (setting [1]) were 1.44 µM and > 10 µM, respectively.

Take `Cc1nc(C(C)(CN2CC(F)(F)C2)NC(=O)c2cc(OCC(F)(F)F)c(C3CC3)cn2)no1` (centres unmarked) [Example 128, 5-cyclopropyl-N-[1-(3,3-difluoroazetidin-1-yl)-2-(5-methyl-1,2,4-oxadiazol-3-yl)propan-2-yl]-4-(2,2,2-trifluoroethoxy)pyridine-2-carboxamide]: the EC50 was 0.0653 µM on human CB2 receptors (read-out: Human CB2 EC50) and > 10 µM at human CB1 receptors (setting [1]).

`Cc1nc([C@@](C)(CS(C)(=O)=O)NC(=O)c2cc(OCC(F)(F)F)c(C3CC3)cn2)no1` (single isomer, unassigned) [Example 98, 5-Cyclopropyl-4-(2,2,2-trifluoro-ethoxy)-pyridine-2-carboxylic acid [2-methanesulfonyl-1-methyl-1-(5-methyl-[1,2,4]oxadiazol-3-yl)-ethyl]-amide]: the figures for the EC50 on human CB2 receptors (Human CB2 EC50 (uM)) and on human CB1 receptors (setting [2]) were 0.0706 µM and > 10 µM, respectively.

Consider `CC(C)(C)C(NC(=O)c1cc(OCC(F)(F)F)c(N2CC(F)(F)C2)cn1)C(N)=O` (single isomer, unassigned) [Example 262, N-[1-amino-3,3-dimethyl-1-oxobutan-2-yl]-5-(3,3-difluoroazetidin-1-yl)-4-(2,2,2-trifluoroethoxy)pyridine-2-carboxamide], for which the EC50 is 0.261 µM at human CB2 receptors (Human CB2 EC50 (uM)) and > 10 µM at human CB1 receptors (setting [2]).

Consider `O=C(NC(c1ccccn1)C(F)(F)F)c1cc(OCC(F)(F)F)c(C2CC2)cn1` (centres unmarked) [Example 51, 5-Cyclopropyl-4-(2,2,2-trifluoro-ethoxy)-pyridine-2-carboxylic acid (2,2,2-trifluoro-1-pyridin-2-yl-ethyl)-amide], for which the EC50 on human CB2 receptors (read-out: Human CB2 EC50) is 0.0122 µM; at human CB1 receptors (setting [1]), > 10 µM.

For `CC(C)(C)C(NC(=O)c1cc(OCC(F)(F)F)c(C2CC2)cn1)c1noc(N)n1` (single isomer, unassigned) [Example 227, N-[1-(5-amino-1,2,4-oxadiazol-3-yl)-2,2-dimethylpropyl]-5-cyclopropyl-4-(2,2,2-trifluoroethoxy)pyridine-2-carboxamide], the EC50 was 0.015 µM on human CB2 receptors (Human CB2 EC50 (uM)) and > 10 µM at human CB1 receptors (setting [3]).

With `CC(C)(C)C(NC(=O)c1cc(OC2COC2)c(Cl)cn1)c1nccs1` (centres unmarked) [Example 39, 5-Chloro-4-(oxetan-3-yloxy)-pyridine-2-carboxylic acid (2,2-dimethyl-1-thiazol-2-yl-propyl)-amide], the EC50 at human CB2 receptors (read-out: Human CB2 EC50) was 0.128 µM; on human CB1 receptors (setting [1]), > 10 µM.

Turning to `Cc1nc(C(C)(CS(C)(=O)=O)NC(=O)c2cc(O[C@@H](C)C(F)(F)F)c(C3(F)CCC3)cn2)no1` (stereo partly drawn) [Example 138, 5-(1-fluorocyclobutyl)-N-[2-(5-methyl-1,2,4-oxadiazol-3-yl)-1-methylsulfonylpropan-2-yl]-4-[(2S)-1,1,1-trifluoropropan-2-yl]oxypyridine-2-carboxamide], the EC50 is 0.0217 µM on human CB2 receptors (read-out: Human CB2 EC50) and > 10 µM on human CB1 receptors (setting [1]).

For `O=C(NCC1(O)CCCC1)c1cc(OCC2CC2)c(C2CC2)cn1` [Example 56, 5-Cyclopropyl-4-cyclopropylmethoxy-pyridine-2-carboxylic acid (1-hydroxy-cyclopentylmethyl)-amide], the EC50 at human CB2 receptors (read-out: Human CB2 EC50) was 0.0181 µM; at human CB1 receptors (setting [1]) it was > 10 µM.

On to `Cc1nc(C(C)(CO)NC(=O)c2cc(OCC(F)(F)F)c(C3CC3)cn2)no1` (single isomer, unassigned) [Example 140, 5-cyclopropyl-N-[1-hydroxy-2-(5-methyl-1,2,4-oxadiazol-3-yl)propan-2-yl]-4-(2,2,2-trifluoroethoxy)pyridine-2-carboxamide], for which the EC50 on human CB2 receptors (Human CB2 EC50 (uM)) is 0.511 µM; at human CB1 receptors (setting [2]), > 10 µM.

Take `Cn1nnnc1C(C)(CC1CC1)NC(=O)c1cc(OCC(F)(F)F)c(C2CC2)cn1` (centres unmarked) [Example 151, 5-cyclopropyl-N-[1-cyclopropyl-2-(1-methyltetrazol-5-yl)propan-2-yl]-4-(2,2,2-trifluoroethoxy)pyridine-2-carboxamide]: the EC50 was 0.0198 µM at human CB2 receptors (read-out: Human CB2 EC50) and > 10 µM at human CB1 receptors (setting [1]).

For `CC(C)C[C@H](NC(=O)c1cc(-c2cccc(Cl)c2)c(Cl)cn1)C(N)=O` [Example 3, 5-Chloro-4-(3-chloro-phenyl)-pyridine-2-carboxylic acid ((S)-1-carbamoyl-3-methyl-butyl)-amide], the EC50 at human CB2 receptors (read-out: Human CB2 EC50) was 0.466 µM; on human CB1 receptors (setting [1]), > 10 µM.

For `Cc1nc(C(C)(CS(C)(=O)=O)NC(=O)c2cc(O[C@@H](C)C(F)(F)F)c(C3(F)CCC3)cn2)no1` (stereo partly drawn) [Example 137, 5-(1-fluorocyclobutyl)-N-[2-(5-methyl-1,2,4-oxadiazol-3-yl)-1-methylsulfonylpropan-2-yl]-4-[(2S)-1,1,1-trifluoropropan-2-yl]oxypyridine-2-carboxamide], the values for the EC50 on human CB2 receptors (read-out: Human CB2 EC50) and at human CB1 receptors (setting [1]) were 0.0105 µM and > 10 µM, respectively.

Turning to `Cc1nc(C(C)(NC(=O)c2cc(OCC(F)(F)F)c(C3CC3)cn2)C(=O)N2CCC2)no1` (centres unmarked) [Example 182, N-[1-(azetidin-1-yl)-2-(5-methyl-1,2,4-oxadiazol-3-yl)-1-oxopropan-2-yl]-5-cyclopropyl-4-(2,2,2-trifluoroethoxy)pyridine-2-carboxamide], the values for the EC50 on human CB2 receptors (read-out: Human CB2 EC50) and on human CB1 receptors (setting [1]) were 0.0054 µM and > 10 µM, respectively.

As to `Cc1nc(C(C)(NC(=O)c2cc(OCC(F)(F)F)c(C3CC3)cn2)C(N)=O)no1` (centres unmarked) [Example 180, N-[1-amino-2-(5-methyl-1,2,4-oxadiazol-3-yl)-1-oxopropan-2-yl]-5-cyclopropyl-4-(2,2,2-trifluoroethoxy)pyridine-2-carboxamide], the results for the EC50 at human CB2 receptors (read-out: Human CB2 EC50) and at human CB1 receptors (setting [1]) were 0.149 µM and > 10 µM, respectively.
